#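 Method: 48-hour compound exposure of cells in 96-well plates, five concentrations, linear interpolation of endpoints. GI50 marks 50% less growth. TGI denotes the concentration required for complete inhibition of growth.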
# Assays:
# Assay in all cases: NCI anticancer screen, dose series, 48 h
# ACHN renal = system: ACHN renal
# OVCAR-8 ovarian = system: OVCAR-8 ovarian
# MDA-MB-231 breast = system: MDA-MB-231 breast
# K-562 leukemia = system: K-562 leukemia
# SF-295 CNS = system: SF-295 CNS
# U251 CNS = system: U251 CNS
# HOP-62 NSCLC = system: HOP-62 NSCLC
# SK-OV-3 ovarian = system: SK-OV-3 ovarian
# MDA-MB-435 = system: MDA-MB-435
# OVCAR-3 ovarian = system: OVCAR-3 ovarian
# SF-539 CNS = system: SF-539 CNS
# RPMI-8226 leukemia = system: RPMI-8226 leukemia
# NCI-H226 lung = system: NCI-H226 lung
# SK-MEL-28 melanoma = system: SK-MEL-28 melanoma
# HCT-116 colon = system: HCT-116 colon
# OVCAR-4 ovarian = system: OVCAR-4 ovarian
# NCI-H23 lung = system: NCI-H23 lung
# SF-268 CNS = system: SF-268 CNS
# HOP-92 NSCLC = system: HOP-92 NSCLC
# SW-620 colon = system: SW-620 colon
# MOLT-4 leukemia = system: MOLT-4 leukemia
# SN12C renal = system: SN12C renal
# SNB-75 CNS = system: SNB-75 CNS
# SK-MEL-2 melanoma = system: SK-MEL-2 melanoma
# 786-0 renal = system: 786-0 renal
# HCT-15 colon = system: HCT-15 colon
# HL-60(TB) leukemia = system: HL-60(TB) leukemia
# HS 578T breast = system: HS 578T breast
# COLO 205 colon = system: COLO 205 colon
# NCI-H522 lung = system: NCI-H522 lung
# SK-MEL-5 melanoma = system: SK-MEL-5 melanoma
# RXF 393 renal = system: RXF 393 renal
# SNB-19 CNS = system: SNB-19 CNS
# M14 melanoma = system: M14 melanoma
# CAKI-1 renal = system: CAKI-1 renal
# TK-10 renal = system: TK-10 renal
# UACC-62 melanoma = system: UACC-62 melanoma
# MALME-3M melanoma = system: MALME-3M melanoma
# PC-3 prostate = system: PC-3 prostate
# LOX IMVI melanoma = system: LOX IMVI melanoma
# NCI/ADR-RES ovarian = system: NCI/ADR-RES ovarian
# DU-145 prostate = system: DU-145 prostate
# A549 NSCLC = system: A549 NSCLC
# T-47D breast = system: T-47D breast
# HT29 colon = system: HT29 colon
# MCF7 breast = system: MCF7 breast
# BT-549 breast = system: BT-549 breast
# SR leukemia = system: SR leukemia
# UO-31 renal = system: UO-31 renal
# OVCAR-5 ovarian = system: OVCAR-5 ovarian
# KM12 colon = system: KM12 colon
# NCI-H460 lung = system: NCI-H460 lung
# UACC-257 melanoma = system: UACC-257 melanoma
compound,measurement,setting,value
COC(=O)C1=C(C(=O)OC)SC(=C(Cl)C(=S)Sc2ccccc2N)S1,GI50,ACHN renal,22.7 µM
same,TGI,ACHN renal,49.7 µM
same,GI50,OVCAR-8 ovarian,46.6 µM
same,TGI,OVCAR-8 ovarian,> 100 µM
same,GI50,MDA-MB-231 breast,16.6 µM
same,TGI,MDA-MB-231 breast,42.9 µM
same,GI50,K-562 leukemia,68.7 µM
same,TGI,K-562 leukemia,> 100 µM
same,GI50,SF-295 CNS,26.2 µM
same,TGI,SF-295 CNS,64.5 µM
same,GI50,U251 CNS,18.5 µM
same,TGI,U251 CNS,35.4 µM
same,GI50,HOP-62 NSCLC,13.5 µM
same,TGI,HOP-62 NSCLC,33.2 µM
same,GI50,SK-OV-3 ovarian,41.3 µM
same,TGI,SK-OV-3 ovarian,> 100 µM
same,GI50,MDA-MB-435,29.3 µM
same,TGI,MDA-MB-435,> 100 µM
same,GI50,OVCAR-3 ovarian,28.1 µM
same,TGI,OVCAR-3 ovarian,64.6 µM
same,GI50,SF-539 CNS,18.3 µM
same,TGI,SF-539 CNS,42.5 µM
same,GI50,RPMI-8226 leukemia,51.8 µM
same,TGI,RPMI-8226 leukemia,> 100 µM
same,GI50,NCI-H226 lung,30.7 µM
same,TGI,NCI-H226 lung,> 100 µM
same,GI50,SK-MEL-28 melanoma,> 100 µM
same,TGI,SK-MEL-28 melanoma,> 100 µM
same,GI50,HCT-116 colon,13.2 µM
same,TGI,HCT-116 colon,27.7 µM
same,GI50,OVCAR-4 ovarian,80.8 µM
same,TGI,OVCAR-4 ovarian,> 100 µM
same,GI50,NCI-H23 lung,10.1 µM
same,TGI,NCI-H23 lung,25.9 µM
same,GI50,SF-268 CNS,29.1 µM
same,TGI,SF-268 CNS,68.7 µM
same,GI50,HOP-92 NSCLC,46.4 µM
same,TGI,HOP-92 NSCLC,> 100 µM
same,GI50,SW-620 colon,55.4 µM
same,TGI,SW-620 colon,> 100 µM
same,GI50,MOLT-4 leukemia,> 100 µM
same,TGI,MOLT-4 leukemia,> 100 µM
same,GI50,SN12C renal,20.5 µM
same,TGI,SN12C renal,59.4 µM
same,GI50,SNB-75 CNS,32.8 µM
same,TGI,SNB-75 CNS,> 100 µM
same,GI50,SK-MEL-2 melanoma,14.2 µM
same,TGI,SK-MEL-2 melanoma,43.6 µM
same,GI50,786-0 renal,16.9 µM
same,TGI,786-0 renal,36.1 µM
same,GI50,HCT-15 colon,43.8 µM
same,TGI,HCT-15 colon,> 100 µM
same,GI50,HL-60(TB) leukemia,> 100 µM
same,TGI,HL-60(TB) leukemia,> 100 µM
same,GI50,HS 578T breast,19 µM
same,TGI,HS 578T breast,66.2 µM
same,GI50,COLO 205 colon,34.8 µM
same,TGI,COLO 205 colon,> 100 µM
same,GI50,NCI-H522 lung,17.4 µM
same,TGI,NCI-H522 lung,43.1 µM
same,GI50,SK-MEL-5 melanoma,19.9 µM
same,TGI,SK-MEL-5 melanoma,49.2 µM
same,GI50,RXF 393 renal,18.1 µM
same,TGI,RXF 393 renal,38 µM
same,GI50,SNB-19 CNS,32 µM
same,TGI,SNB-19 CNS,> 100 µM
same,GI50,M14 melanoma,7.35 µM
same,TGI,M14 melanoma,30.3 µM
same,GI50,CAKI-1 renal,41.6 µM
same,TGI,CAKI-1 renal,> 100 µM
same,GI50,TK-10 renal,30.9 µM
same,TGI,TK-10 renal,64.3 µM
same,GI50,UACC-62 melanoma,19.9 µM
same,TGI,UACC-62 melanoma,78.4 µM
same,GI50,MALME-3M melanoma,> 100 µM
same,TGI,MALME-3M melanoma,> 100 µM
same,GI50,PC-3 prostate,29.6 µM
same,TGI,PC-3 prostate,> 100 µM
same,GI50,LOX IMVI melanoma,17.8 µM
same,TGI,LOX IMVI melanoma,40.3 µM
same,GI50,NCI/ADR-RES ovarian,25.5 µM
same,TGI,NCI/ADR-RES ovarian,62.1 µM
same,GI50,DU-145 prostate,4.14 µM
same,TGI,DU-145 prostate,43.7 µM
same,GI50,A549 NSCLC,22.3 µM
same,TGI,A549 NSCLC,59.2 µM
same,GI50,T-47D breast,39.6 µM
same,TGI,T-47D breast,> 100 µM
same,GI50,HT29 colon,93.9 µM
same,TGI,HT29 colon,> 100 µM
same,GI50,MCF7 breast,16.7 µM
same,TGI,MCF7 breast,34 µM
same,GI50,BT-549 breast,2.03 µM
same,TGI,BT-549 breast,8.6 µM
same,GI50,SR leukemia,52.4 µM
same,TGI,SR leukemia,> 100 µM
same,GI50,UO-31 renal,27 µM
same,TGI,UO-31 renal,> 100 µM
same,GI50,OVCAR-5 ovarian,19.3 µM
same,TGI,OVCAR-5 ovarian,41.5 µM
same,GI50,KM12 colon,> 100 µM
same,TGI,KM12 colon,> 100 µM
same,GI50,NCI-H460 lung,19.6 µM
same,TGI,NCI-H460 lung,35.5 µM
same,GI50,UACC-257 melanoma,20.3 µM
same,TGI,UACC-257 melanoma,55.7 µM

# — PubChem BioAssay (NCI)
